The structures appear in SMILES notation.

In series [1] the target is T1, αv integrin (Homo sapiens, UniProt P06756).
T1 construct: three primary cell cultures; host or cells: HMVEC primary human dermal microvascular endothelial cells, passages 9-14
The series can be described thus: Cell adhesion assay: HMVEC adhesion to vitronectin coated plates. The format is cell-based. The following applies: human dermal microvascular endothelial cells, 1.5 h at 37° C., read-out: IC50 to block adhesion of HMVEC to vitronectin. How it is done: (§1) The ability of compounds to block adhesion of three primary cell cultures: human dermal microvascular endothelial (HMVEC), rat lung microvascular endothelial (RLMVEC), and rabbit aortic endothelial (RAEC) cells, to vitronectin coated plates was determined using the following procedure.
(§2) Adhesion plates preparation. 96-well plates were coated with vitronectin in PBS, pH 7.4 by incubating 50 μL of the solution (10 μg/ml) for 1.5 h at room temperature or overnight at 4° C. The plates then were blocked with 1% BSA in PBS (30 min at room temperature) and washed with PBS.
(§3) Cell culturing and loading. HMVEC cells (passages (p)9-14) (from Lonza, Allendale, NJ) RLMVEC cells (p4-14) (from Vec Technology, Rensselaer, NY) and RAEC cells (p4-14) (from CellBiologics, Chicago, IL) were used for the compound testing. Cells were grown in T175 tissue culture flasks and dislodged by gentle 3 min treatment with Accutase (Life Technologies). After washing, the cells in suspension in RPMI-1640 (Life Technologies) were loaded with calcein-AM (5 μM) (Life Technologies) for 30 min at 37° C. and re-suspended into RPMI w/o phenol red medium containing 10% FBS.
(§4) Adhesion assay. The cell suspension was aliquoted into the wells at a density of 1.0×10^5 cells/well (RLMVEC) and 5.0×10^4 (HMVEC, and RAEC). The test compounds are added at the same time with the cells. The plates are incubated for 1.5 h at 37° C. […] The wash was performed by 2 cycles of aspiration of the supernatant and addition of 100 μL of the pre-warmed fresh DPBS (Life Technologies). A fluorescence of the remaining cells is measured using multimode plate reader (Victor 2V, PerkinElmer) at an excitation/emission wavelengths of 485/535 nm. The compounds were tested starting with maximal concentration of 1 μM with half-log dilution schedule. IC50 values were calculated with Prism 5 (GraphPad, CA) by fixing the bottom of the curves to a value of blank for empty wells fluorescence.

The subject of series [2] is αv integrin. The series can be described thus: Cell adhesion assay: RLMVEC adhesion to vitronectin coated plates. The following applies: rat lung microvascular endothelial cells, 1.5 h at 37° C., read-out: IC50 to block adhesion of RLMVEC to vitronectin. The format is cell-based. How it is done: as §1, §2, §3, §4
The test system of series [3] is αv integrin. The series can be described thus: Cell adhesion assay: RAEC adhesion to vitronectin coated plates. Particulars: rabbit aortic endothelial cells, 1.5 h at 37° C., read-out: IC50 to block adhesion of RAEC to vitronectin. The format is cell-based. How it is done: as §1, §2, §3, §4
The subject of series [4] is chick chorioallantoic membrane (CAM). As to the kind of experiment: Chick chorioallantoic membrane (CAM) anti-angiogenic assay. Particulars: gelatin sponge graft with test compound and 50 ng VEGF; FIG. 1. The format is in vivo.
Experimental: CAM surfaces were grafted with gelatin sponges impregnated with the concentrations of test compounds and 50 ng VEGF dissolved in PBS. Untreated CAM received only VEGF and PBS. Error bars represent SEM, N=5, P values for the treated groups were calculated by comparing with the untreated group (*p<0.05, **p<0.01, ***p<0.001). Test Substance Preparation: Test samples and standards were dissolved in PBS and sterilized by passing through a syringe filter (0.22 μm). hVEGF(SIGMA) 50 ng/μl was prepared in sterile PBS. Grafting: Gelatin sponge (Abogel) was cut in approximately 2 mm^3 pieces and loaded with required test substance or PBS and VEGF. The graft was placed on the CAM. Eggs: Fertile hen eggs were procured from a hatchery and were cleaned and decontaminated using alcohol. 1 ml of albumin was removed using a syringe and incubated for 8 days. Grafts were placed on developing CAMs and further incubated to day 12. On day 12, CAMs were fixed with 4% formaldehyde in PBS, dissected and imaged. Imaging: Fixed CAMs were imaged under constant illumination and magnification under a stereomicroscope fitted with a digital camera (CANON). Image analysis: Images were analyzed on MS PowerPoint keeping the image size constant. A ring was drawn around the graft and the size was kept constant. Blood vessels crossing the ring were counted for each test group.
Series [5] in a line: Distribution in plasma, aqueous humor, vitreous humor and retina after topical ocular administration. The following applies: 50 μL/eye, 1.0-2.5 mg/mL, 0.5 or 1.0 and 8 hours, FIGS. 2, 3, 4. It counts as in vivo, Dutch Belted rabbits.
Experimental: The plasma concentrations and ocular distribution (aqueous humor, vitreous humor, and retina) of Compounds A1, A2, and A3 were determined following topical ocular administration in Dutch Belted rabbits. […] Aqueous humor, vitreous humor, and retina were collected from each eye at each time point post-dose. Also, weights were recorded. Plasma and ocular sample concentrations of the compounds were determined by LC-MS/MS.
Animal Dosing: The exposure of compounds A1, A2, and A3 was evaluated in Dutch Belted rabbits. The study was not blinded. Each compound was dosed as n=3/time point for a total of nine rabbits. Rabbits were housed one per cage. Animals were not fasted, and food and water were supplied ad libitum.
Animals were anesthetized following the 13IA5 IACUC protocol for the dosing. Each rabbit received a bolus dose of test formulation via topical ocular administration into both eyes at time zero on the day of dosing. Plasma and ocular samples were collected at pre-determined time points. Animals for the 30-minute and 1-hour time points were anesthetized for the entire duration of the study. The animals for the 8-hour time point were recovered after dosing and then euthanized for sampling purposes.
At each time point, approximately 0.5 mL of blood was collected and placed into chilled Na-heparin tubes containing citric acid. Blood samples were centrifuged at a speed of 3,000 g for 5 minutes to obtain plasma as quickly as possible. Samples were stored frozen at −80° C. until analysis. Animals were euthanized per the 13IA5 IACUC protocol and both eyes were enucleated immediately. Following enucleation, each eye was rinsed with PBS. Ocular samples from both eyes of each animal were collected and weights were recorded. All the samples were frozen immediately on dry ice, and stored at −60 to −80° C. for analysis.
Analysis of Plasma and Ocular Samples: An LC-MS/MS method was developed for the determination of Compounds A1, A2, and A3 in rabbit plasma and ocular samples.
Series [6] concerns laser-induced choroidal neovascularization. As to the kind of experiment: Laser-induced choroidal neovascularization (CNV) model. The following applies: twice daily topical administration, 50 μL; fluorescein angiography day 35; FIG. 5. It counts as in vivo, Dutch Belted rabbits.
Experimental: Healthy male animals weighing between 1.5 and 2.0 kg were used in these studies. Animals were weighed prior to dosing and at euthanasia, and more often if needed. Baseline fundus photography and fluorescein angiography was performed on each animal prior to CNV induction.
Animals were anesthetized with an intramuscular injection of ketamine hydrochloride (20 mg/kg) and xylazine (2 mg/kg) for CNV induction, fundus photography, fluorescein angiography, and intravitreal (IVT) injections. Rabbits were maintained on isoflurane (approximatelyl to 3%) in oxygen (approximately 1 to 2 L/min) as necessary. One drop of topical proparacaine hydrochloride anesthetic (0.5%) was placed in each eye before procedures. Additional topical ocular anesthesia was utilized during the procedure if needed.
CNV was induced by laser photocoagulation treatment. […]
Clinical ophthalmic exams (slit-lamp biomicroscopy and indirect ophthalmoscopy), fundus photography, and fluorescein angiography were performed at baseline and then weekly for up to 6 weeks post-induction. Exams were scored using the McDonald-Shadduck Score System. […]
At the conclusion of the study, animals were euthanized per the 13C232Q3 IACUC protocol and both eyes enucleated immediately. […] Ocular samples (aqueous humor, vitreous humor retina and choroid) from both eyes of each animal were collected and weights were recorded. […]

T1 sequence (P06756 31-1048): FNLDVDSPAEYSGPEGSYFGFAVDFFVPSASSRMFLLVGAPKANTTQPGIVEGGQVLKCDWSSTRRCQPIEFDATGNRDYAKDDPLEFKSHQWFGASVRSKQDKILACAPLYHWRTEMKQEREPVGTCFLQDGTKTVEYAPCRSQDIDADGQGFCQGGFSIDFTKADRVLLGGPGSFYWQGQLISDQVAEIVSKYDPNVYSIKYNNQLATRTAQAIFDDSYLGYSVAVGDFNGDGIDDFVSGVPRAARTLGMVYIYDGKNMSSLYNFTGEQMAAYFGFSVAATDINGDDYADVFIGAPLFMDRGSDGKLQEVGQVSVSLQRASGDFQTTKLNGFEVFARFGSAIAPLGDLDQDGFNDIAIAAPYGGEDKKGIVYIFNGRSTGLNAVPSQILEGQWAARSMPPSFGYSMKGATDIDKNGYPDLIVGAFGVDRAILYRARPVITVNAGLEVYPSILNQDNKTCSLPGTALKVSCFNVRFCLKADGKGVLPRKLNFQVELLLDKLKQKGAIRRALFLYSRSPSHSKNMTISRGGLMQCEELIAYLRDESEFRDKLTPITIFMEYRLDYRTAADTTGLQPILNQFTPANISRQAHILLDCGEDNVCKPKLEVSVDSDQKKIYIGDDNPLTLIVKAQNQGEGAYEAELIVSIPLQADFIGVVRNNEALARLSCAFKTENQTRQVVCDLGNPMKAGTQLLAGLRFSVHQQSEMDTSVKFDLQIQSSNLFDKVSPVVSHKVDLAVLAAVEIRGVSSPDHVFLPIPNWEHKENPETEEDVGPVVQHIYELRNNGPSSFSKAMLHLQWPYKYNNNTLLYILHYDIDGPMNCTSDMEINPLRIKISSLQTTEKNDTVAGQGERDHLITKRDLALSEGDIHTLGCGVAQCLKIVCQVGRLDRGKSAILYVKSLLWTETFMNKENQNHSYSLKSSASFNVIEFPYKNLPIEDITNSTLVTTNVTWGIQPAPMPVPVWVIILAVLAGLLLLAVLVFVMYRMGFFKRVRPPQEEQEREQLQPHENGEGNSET

As to `O=C(O)CC(CCCCCCc1ccc2c(n1)NCCC2)c1cnc2cc(C(F)(F)F)ccc2c1` (stereo not shown) [Compound A7, 9-(5,6,7,8-tetrahydro-1,8-naphthyridin-2-yl)-3-(7-(trifluoromethyl)quinolin-3-yl)nonanoic Acid], the IC50 in series [1] worked out at 130 nM; in series [2], 400 nM; in series [3] it was 210 nM.

As for `O=C(O)C[C@@H](c1ccc(OC(F)F)nc1)N1CCN(CCCc2ccc3c(n2)NCCC3)C1=O` [Compound A1, (S)-3-(6-(difluoromethoxy)pyridin-3-yl)-3-(2-oxo-3-(3-(5,6,7,8-tetrahydro-1,8-naphthyridin-2-yl)propyl)imidazolidin-1-yl)propanoic acid], the IC50 in series [1] worked out at 9.4 nM; in series [2], 31 nM; in series [3], 8.4 nM. Moreover, in series [4], the “anti-angiogenic activity: number of blood vessels vs untreated control” value was “significantly decreases the number of blood vessels”. In addition, the “distribution to the retina” value in series [5] is recorded as “efficiently distributed to the retina”. For the same compound, the “reduction of laser-induced choroidal neovascularization vs vehicle control” value in series [6] is reported as “effectively reduced laser-induced choroidal neovascularization”.

As to `O=C(O)CC(CCCCCCc1ccc2c(n1)NCCC2)c1cnc2cc(F)c(F)cc2c1` (stereo not shown) [Compound A6, 3-(6,7-difluoroquinolin-3-yl)-9-(5,6,7,8-tetrahydro-1,8-naphthyridin-2-yl)nonanoic Acid], the figures for the IC50 in series [1], in series [2] and in series [3] were 44 nM, 5.5 nM and 44 nM, respectively.

For the compound `O=C(O)CC(CCCCCCc1ccc2c(n1)NCCC2)c1ccc(OC(F)F)nc1` (stereo not shown) [Compound A3, 3-(6-(difluoromethoxy)pyridin-3-yl)-9-(5,6,7,8-tetrahydro-1,8-naphthyridin-2-yl)nonanoic Acid], the IC50 in series [1] was determined as 620 nM; in series [2] it was 230 nM; in series [3] it was 59 nM. Also, in series [5], the “distribution to the retina” value is “efficiently distributed to the retina”.

As to `O=C(O)CC(CCCCCCc1ccc2c(n1)NCCC2)c1cnc(C(F)(F)F)nc1` (stereo not shown) [Compound A2, 9-(5,6,7,8-tetrahydro-1,8-naphthyridin-2-yl)-3-(2-(trifluoromethyl)pyrimidin-5-yl)nonanoic Acid], the IC50 in series [1] worked out at 160 nM; in series [2], 68 nM; in series [3], 16 nM. For the same compound, the “anti-angiogenic activity: number of blood vessels vs untreated control” value in series [4] is “significantly decreases the number of blood vessels”. Further, the “distribution to the retina” value in series [5] is on record as “efficiently distributed to the retina”. Moreover, the “reduction of laser-induced choroidal neovascularization vs vehicle control” value in series [6] is given as “effectively reduced laser-induced choroidal neovascularization”.

Consider `O=C(O)CC(CCCCCCc1ccc2c(n1)NCCC2)c1cnc2ccc(F)cc2c1` (stereo not shown) [Compound A4, 3-(6-fluoroquinolin-3-yl)-9-(5,6,7,8-tetrahydro-1,8-naphthyridin-2-yl)nonanoic Acid], for which the IC50 in series [1] stood at 42 nM; in series [2], 32 nM; in series [3] it was 8.5 nM.

`O=C(O)CC(CCCCCCc1ccc2c(n1)NCCC2)c1cnc2cc(F)ccc2c1` (stereo not shown) [Compound A5, 3-(7-fluoroquinolin-3-yl)-9-(5,6,7,8-tetrahydro-1,8-naphthyridin-2-yl)nonanoic Acid]: the IC50 in series [1] turned out to be 250 nM; in series [2], 37 nM; in series [3], 20 nM.
